The text below walks through data of patent US8067424B2, “Selective inhibitors for cyclin-dependent kinases” (Emory University, priority 2007, dated 2011).

Format in all cases: biochemical
The target in one test is NEK6 (Homo sapiens, UniProt Q9HC98). In words: Kinase screen: NEK6 assay. Here is the method: (§1) Generally, the same procedure was used for all assays. Since the total assay volume was 25.5 microliters, 0.5 microliters of inhibitors at 51× assay concentration were added to the plates before any other addition.
Chain of NEK6 (Q9HC98 whole entry, species assumed): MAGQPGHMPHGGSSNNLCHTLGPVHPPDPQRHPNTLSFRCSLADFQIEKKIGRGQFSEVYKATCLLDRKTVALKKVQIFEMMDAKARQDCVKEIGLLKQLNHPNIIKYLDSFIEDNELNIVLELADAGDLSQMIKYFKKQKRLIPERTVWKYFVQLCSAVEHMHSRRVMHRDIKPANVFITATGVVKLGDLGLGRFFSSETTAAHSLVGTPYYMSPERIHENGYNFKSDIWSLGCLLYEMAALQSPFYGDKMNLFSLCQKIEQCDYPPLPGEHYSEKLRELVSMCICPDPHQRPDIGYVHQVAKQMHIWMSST
(§2) The basic procedure was to add 0.5 microliters inhibitor/control in DMSO to plate. Fifteen microliters of enzyme/substrate/buffer mix were added and incubated for 5 min. Ten microliters MgATP at the relevant concentration were added and incubated for 30 min. The assay was stopped by adding 5 microliters of 3% orthophosphoric acid. The assay was transferred to a p81 filter plate and read in a scintillation counter of 30 sec/well. Note that this assay procedure was not followed for MKK1, which instead involved a two-step assay, and PKC alpha, which required the addition of lipid vesicles.
(500-1000 cpm/pmole) and incubated for 30 min at room temperature. Assays were stopped by addition of 5 μl of 0.5 M (3%) orthophosphoric acid and then harvested onto P81 Unifilter plates with a wash buffer of 50 mM orthophosphoric acid.

Another test concerns the target IGF-1R (Homo sapiens, UniProt P08069). In words: Kinase screen: IGF-1R assay. The following applies: 10 micromolar compound; for remaining activity at 10 µM: read-out: mean activity remaining (as a percentage of the original activity), IGF1-R. How it is done:
as §1, §2
IGF-1R assay: IGF-1R (5-20 mU diluted in 50 mM Tris pH 7.5, 0.1 mM EGTA, 1 mg/ml BSA) was assayed against a substrate peptide ([…]) (SEQ ID NO: in a final volume of 25.5 μl containing 50 mM Tris pH 7.5, 300 μM substrate peptide, 10 mM magnesium acetate and 0.005 mM [33P-g-ATP] (50-1000 cpm/pmole) and incubated for 30 min at room temperature. Assays were stopped by addition of 5 μl of 0.5 M (3%) orthophosphoric acid and then harvested onto P81 Unifilter plates with a wash buffer of 50 mM orthophosphoric acid.

The next test concerns the target GSK3β (Homo sapiens, UniProt P49841). In words: Kinase screen: GSK3b assay. How it is done: as §1, §2
(§3) (50-1000 cpm/pmole) and incubated for 30 min at room temperature. Assays were stopped by addition of 5 μl of 0.5 M (3%) orthophosphoric acid and then harvested onto P81 Unifilter plates with a wash buffer of 50 mM orthophosphoric acid.

A further test has as its target CDK4 (Homo sapiens, UniProt P11802). In words: CDK4 in vitro kinase inhibition (protocol similar to Example 14). The following applies: for remaining activity at 0.1 µM: 100 nM, mean of three (standard deviation), read-out: CDK4 % remaining kinase activity after incubation with 100 nM of compound; for IC50: Table 7, mean of three experiments.
Another test concerns the target ERK2 (Homo sapiens, UniProt P28482). In words: Kinase screen: MAPK2/ERK2 assay. How it is done: as §1, §2
MAPK2/ERK2 assay: MAPK/ERK2 (5-20 mU diluted in 50 mM Tris pH 7.5, 0.1 mM EGTA, 0.1 mM Na3VO4, 0.1% b-mercaptoethanol, 1 mg/ml BSA) was assayed against MBP in a final volume of 25.5 μl in 25 mM Tris pH 7.5, 0.1 mM EGTA, 0.33 mg/ml MBP, 10 mM magnesium acetate and 0.05 mM [33P-g-ATP] (500-1000 cpm/pmole) and incubated for 30 min at room temperature. Assays were stopped by addition of 5 μl of 0.5 M (3%) orthophosphoric acid and then harvested onto P81 Unifilter plates with a wash buffer of 50 mM orthophosphoric acid.

Another test has as its target MSK1 (Homo sapiens, UniProt O75582). In words: Kinase screen: MSK1 assay. Here is the method:
as §1, §2
MSK1 assay: MSK1 (5-20 mU diluted in 20 mM MOPS pH 7.5, 1 mM EDTA, 0.01% Brij35, 0.1% b-mercaptoethanol, 1 mg/ml BSA) was assayed against a modified Crosstide peptide […] (SEQ ID NO: 4) in a final volume of 25.5 μl containing 8 mM MOPS pH7.0, 0.2 mM EDTA, 30 μM substrate peptide, 10 mM magnesium acetate and 0.02 mM [33P-g-ATP] (50-1000 cpm/pmole) and incubated for 30 min at room temperature Assays were stopped by addition of 5 μl of 0.5 M (3%) orthophosphoric acid and then harvested onto P81 Unifilter plates with a wash buffer of 50 mM orthophosphoric acid.

The target in a further test is DYRK1A (Homo sapiens, UniProt Q13627). In words: Kinase screen: DYRK 1A assay. How it is done: as §1, §2, §3
The mark [1] stands for this setting: 10 micromolar compound, read-out: mean activity remaining (as a percentage of the original activity), NEK 6.
Where [2] appears, read: 10 micromolar compound, read-out: mean activity remaining (as a percentage of the original activity), GSK 3b.
[3] abbreviates: 10 micromolar compound, read-out: mean activity remaining (as a percentage of the original activity), ERK2.
Setting [4] is: 10 micromolar compound, read-out: mean activity remaining (as a percentage of the original activity), MSK1.
The mark [5] stands for this setting: 10 micromolar compound, read-out: mean activity remaining (as a percentage of the original activity), DYRK 1A.

Where two headings read alike, the source gives them in different places. Bounds are passed on as bounds.

Chain of CDK4 (P11802 whole entry): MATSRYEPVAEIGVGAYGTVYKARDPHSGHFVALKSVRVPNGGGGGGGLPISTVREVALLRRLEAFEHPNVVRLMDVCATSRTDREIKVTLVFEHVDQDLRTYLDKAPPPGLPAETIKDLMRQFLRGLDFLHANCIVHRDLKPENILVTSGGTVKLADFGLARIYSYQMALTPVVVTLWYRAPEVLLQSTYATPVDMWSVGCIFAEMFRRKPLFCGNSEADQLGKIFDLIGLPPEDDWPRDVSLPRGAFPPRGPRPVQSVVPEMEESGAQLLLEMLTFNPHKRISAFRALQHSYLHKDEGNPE
Chain of CDK4 (P24385 whole entry partner): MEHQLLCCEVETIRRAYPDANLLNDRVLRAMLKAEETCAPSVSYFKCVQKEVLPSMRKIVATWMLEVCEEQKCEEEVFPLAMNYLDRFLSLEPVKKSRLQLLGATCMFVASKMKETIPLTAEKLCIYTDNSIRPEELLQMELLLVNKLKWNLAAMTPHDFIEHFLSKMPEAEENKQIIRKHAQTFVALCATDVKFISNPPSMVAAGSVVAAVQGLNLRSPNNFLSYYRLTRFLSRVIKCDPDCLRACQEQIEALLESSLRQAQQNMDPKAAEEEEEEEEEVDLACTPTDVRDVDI
Chain of ERK2 (P28482 whole entry, species assumed): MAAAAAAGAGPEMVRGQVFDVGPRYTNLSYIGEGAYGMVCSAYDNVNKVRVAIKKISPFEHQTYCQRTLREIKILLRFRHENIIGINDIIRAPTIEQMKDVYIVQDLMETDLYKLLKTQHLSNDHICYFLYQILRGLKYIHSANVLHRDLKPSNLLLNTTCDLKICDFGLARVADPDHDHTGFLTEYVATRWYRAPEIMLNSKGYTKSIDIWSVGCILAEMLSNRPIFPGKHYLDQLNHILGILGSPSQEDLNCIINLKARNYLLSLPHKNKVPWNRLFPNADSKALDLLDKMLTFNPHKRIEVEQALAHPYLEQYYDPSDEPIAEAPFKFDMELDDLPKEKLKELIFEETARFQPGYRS
Chain of MSK1 (O75582 whole entry, species assumed): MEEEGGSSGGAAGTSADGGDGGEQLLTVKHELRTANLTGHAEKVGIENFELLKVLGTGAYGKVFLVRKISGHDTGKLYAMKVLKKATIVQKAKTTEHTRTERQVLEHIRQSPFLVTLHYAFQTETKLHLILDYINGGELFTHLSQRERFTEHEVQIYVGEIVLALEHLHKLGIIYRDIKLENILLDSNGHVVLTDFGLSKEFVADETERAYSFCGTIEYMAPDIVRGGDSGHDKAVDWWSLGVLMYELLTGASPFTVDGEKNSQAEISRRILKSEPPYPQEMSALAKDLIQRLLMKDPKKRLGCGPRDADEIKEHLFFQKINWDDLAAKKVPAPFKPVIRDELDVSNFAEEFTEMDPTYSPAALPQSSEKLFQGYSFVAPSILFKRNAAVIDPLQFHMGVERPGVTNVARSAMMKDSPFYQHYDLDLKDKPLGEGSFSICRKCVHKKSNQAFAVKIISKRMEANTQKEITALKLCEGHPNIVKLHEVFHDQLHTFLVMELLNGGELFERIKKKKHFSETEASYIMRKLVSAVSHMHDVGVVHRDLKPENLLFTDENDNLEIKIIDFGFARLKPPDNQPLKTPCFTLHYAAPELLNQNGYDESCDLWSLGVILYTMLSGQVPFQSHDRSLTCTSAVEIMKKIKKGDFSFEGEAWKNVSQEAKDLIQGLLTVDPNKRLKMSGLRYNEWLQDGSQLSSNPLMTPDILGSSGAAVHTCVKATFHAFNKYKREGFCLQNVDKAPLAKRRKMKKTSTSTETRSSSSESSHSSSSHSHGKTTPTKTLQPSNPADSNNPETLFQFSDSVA
Chain of GSK3β (P49841 whole entry, species assumed): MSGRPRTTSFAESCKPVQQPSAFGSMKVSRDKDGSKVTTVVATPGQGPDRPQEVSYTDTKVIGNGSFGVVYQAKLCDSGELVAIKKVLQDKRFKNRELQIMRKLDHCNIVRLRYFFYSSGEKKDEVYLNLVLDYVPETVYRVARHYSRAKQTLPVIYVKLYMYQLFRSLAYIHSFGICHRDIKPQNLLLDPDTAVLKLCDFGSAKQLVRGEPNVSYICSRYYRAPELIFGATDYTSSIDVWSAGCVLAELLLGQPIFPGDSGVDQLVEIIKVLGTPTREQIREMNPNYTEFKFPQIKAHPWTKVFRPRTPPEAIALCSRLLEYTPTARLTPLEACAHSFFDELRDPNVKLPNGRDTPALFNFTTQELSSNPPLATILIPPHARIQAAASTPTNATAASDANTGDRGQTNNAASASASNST
Chain of IGF-1R (P08069 31-1367, species assumed): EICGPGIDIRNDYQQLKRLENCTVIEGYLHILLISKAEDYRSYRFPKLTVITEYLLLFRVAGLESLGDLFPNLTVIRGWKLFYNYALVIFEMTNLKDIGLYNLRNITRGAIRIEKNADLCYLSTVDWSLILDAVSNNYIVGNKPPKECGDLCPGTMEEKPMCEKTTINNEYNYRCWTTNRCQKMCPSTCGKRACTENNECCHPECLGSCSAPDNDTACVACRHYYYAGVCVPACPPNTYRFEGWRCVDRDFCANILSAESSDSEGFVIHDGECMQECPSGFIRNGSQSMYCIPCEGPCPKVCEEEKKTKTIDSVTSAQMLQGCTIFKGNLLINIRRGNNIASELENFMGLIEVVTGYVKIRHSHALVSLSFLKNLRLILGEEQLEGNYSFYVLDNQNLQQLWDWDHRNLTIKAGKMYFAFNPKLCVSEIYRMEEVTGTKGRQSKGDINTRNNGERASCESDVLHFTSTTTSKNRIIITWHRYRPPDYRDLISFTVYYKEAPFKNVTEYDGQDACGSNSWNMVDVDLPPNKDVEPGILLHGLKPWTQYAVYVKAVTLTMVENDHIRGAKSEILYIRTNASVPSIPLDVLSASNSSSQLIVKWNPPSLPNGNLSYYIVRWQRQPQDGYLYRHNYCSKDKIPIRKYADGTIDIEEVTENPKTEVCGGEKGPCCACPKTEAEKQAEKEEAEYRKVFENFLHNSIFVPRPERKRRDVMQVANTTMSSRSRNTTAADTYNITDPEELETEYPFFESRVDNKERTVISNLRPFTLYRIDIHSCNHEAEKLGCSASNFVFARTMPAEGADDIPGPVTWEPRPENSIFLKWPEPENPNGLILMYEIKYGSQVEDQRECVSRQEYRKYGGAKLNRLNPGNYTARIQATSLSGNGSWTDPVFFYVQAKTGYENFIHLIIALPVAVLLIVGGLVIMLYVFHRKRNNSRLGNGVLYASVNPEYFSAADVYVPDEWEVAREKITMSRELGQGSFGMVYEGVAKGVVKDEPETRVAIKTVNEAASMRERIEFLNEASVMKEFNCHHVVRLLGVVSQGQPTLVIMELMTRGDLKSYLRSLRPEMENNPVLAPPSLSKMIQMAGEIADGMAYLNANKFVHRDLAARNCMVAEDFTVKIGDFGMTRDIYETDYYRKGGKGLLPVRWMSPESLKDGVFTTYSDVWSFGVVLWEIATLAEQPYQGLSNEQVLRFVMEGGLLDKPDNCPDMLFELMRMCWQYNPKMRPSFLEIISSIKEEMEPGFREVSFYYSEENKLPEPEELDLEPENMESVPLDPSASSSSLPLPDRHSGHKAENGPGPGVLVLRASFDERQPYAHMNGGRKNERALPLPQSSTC

`CC[C@H](CO)Nc1cc(NCc2ccccc2)n2ncc(C(C)C)c2n1` [ICEC0067]: the remaining activity at 10 µM on NEK6 (setting [1]) amounted to 101%; on IGF-1R it was 63%; on GSK3β (setting [2]), 72%; at ERK2 (setting [3]), 59%; on MSK1 (setting [4]) it was 86%; at DYRK1A (setting [5]) it was 27%. In addition, the remaining activity at 0.1 µM on CDK4 was found to be 88%. Besides, the IC50 against CDK4 is more than 1000 nM.

Take `C=C[C@H](CO)Nc1cc(NCc2ccccc2)n2ncc(C(C)C)c2n1` [ICEC0065]: the remaining activity at 10 µM at NEK6 (setting [1]) was 105%; at IGF-1R, 63%; at GSK3β (setting [2]), 92%; at ERK2 (setting [3]), 59%; at MSK1 (setting [4]), 88%; on DYRK1A (setting [5]), 30%. Also, the remaining activity at 0.1 µM on CDK4 amounted to 77%. The IC50 against CDK4 is more than 1000 nM.

On to `CC(C)c1cnn2c(NCc3ccccc3)cc(N[C@@H](CO)[C@H](O)CO)nc12` [ICEC0318, (3S)-3-(7-(Benzylamino)-3-isopropylpyrazolo[1,5-a]pyrimidin-5-ylamino)butane-1,2,4-triol], for which the remaining activity at 10 µM was 87% on NEK6 (setting [1]); 67% at IGF-1R; 63% at GSK3β (setting [2]); 26% on ERK2 (setting [3]); 96% at MSK1 (setting [4]); 15% at DYRK1A (setting [5]). Besides, the remaining activity at 0.1 µM on CDK4 stood at 88%. The same compound came in with an IC50 on CDK4 of more than 1000 nM.

With `CC(C)c1cnn2c(NCc3ccccc3F)cc(NCCCCCN)nc12` [ICEC-0232], at NEK6 (10 micromolar compound), the “mean activity remaining (as a percentage of the original activity), NEK 6” value was found to be 74%. Further, the “mean activity remaining (as a percentage of the original activity), IGF1-R” value at IGF-1R is on record as 17%. Also, the “mean activity remaining (as a percentage of the original activity), GSK 3b” value at GSK3β (10 micromolar compound) is reported as 70%. The “mean activity remaining (as a percentage of the original activity), ERK2” value on ERK2 (10 micromolar compound) worked out at 70%. Moreover, the “mean activity remaining (as a percentage of the original activity), MSK1” value at MSK1 (10 micromolar compound) is given as 42%. Besides, the “mean activity remaining (as a percentage of the original activity), DYRK 1A” value at DYRK1A (10 micromolar compound) is given as 11%.

`CC(C)c1cnn2c(NCc3ccccc3)cc(NCCCCCCCN)nc12` [BS-181]: the remaining activity at 10 µM was found to be 85% at NEK6 (NEK6, 10 μM, read-out: Mean Remaining Enzyme Activity (%)); 112% on GSK3β (GSK3β, 10 μM, read-out: Mean Remaining Enzyme Activity (%)); 86% on ERK2 (ERK2, 10 μM, read-out: Mean Remaining Enzyme Activity (%)); 65% at MSK1 (MSK1, 10 μM, read-out: Mean Remaining Enzyme Activity (%)); 17% at DYRK1A (DYRK1A, 10 μM, read-out: Mean Remaining Enzyme Activity (%)). This compound gave an IC50 against DYRK1A (kinase screen) of 2300 nM.
